For 19 compounds, Ki and EC50 results are on record in patent publication US10035800B2 (AbbVie Inc., priority 2013, dated 2018).

pEC50, pKi: −log10 of the molar value. A value given as a limit tells only on which side of the number the result lay.

One may read the pKi as the negative decadic logarithm of the Ki, by convention in mol/L.

One experiment addresses T1, BRD4 (BDI_K57-E168) (Homo sapiens, UniProt O60885).
T1 construct: BD1: amino acids K57-E168; made in house
In words: TR-FRET bromodomain binding assay, first bromodomain of BRD4. The settings on record: TR-FRET assay protocol G (compound 0.92 μM-15 pM); 100 nM probe. In a few lines: (§1)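 Displacement of a fluorescent Alexa647 BET-inhibitor probe (100 nM with BDI, 30 nM with BDII) from His-tagged BRD4 bromodomains was monitored by europium TR-FRET after one hour at room temperature. Data were normalized to no-compound and 1 μM unlabelled probe controls, fitted with a four-parameter logistic, and IC50s converted to Ki.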
For orientation: TR-FRET usually uses a lanthanide donor and a delayed reading to cut background.

For the next experiment, the target named is T2, BRD4 (BDII_E352-M457) (Homo sapiens, UniProt O60885).
T2 construct: protocol; made in house
Description: TR-FRET bromodomain binding assay, second bromodomain of BRD4. The settings on record: TR-FRET assay protocol G (compound 0.92 μM-15 pM); 30 nM probe. The procedure, abridged: as §1

In experiment [1] the test system is breast cancer cell line MX-1. Description: MX-1 cell line proliferation assay. The class given is cell-based. The settings on record: MX-1 cells, 3-day proliferation assay, Cell Titer Glo; read-out: Cellular proliferation: EC50. The procedure, abridged: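 EC50 comes from sigmoidal fits of Cell Titer Glo luminescence relative to DMSO controls, with assay MSR 2.1. Ten-point 3-fold dilutions (top 3 or 1 μM final) were added to MX-1 breast cancer cells after overnight adhesion. Cells were at 5000/well and proliferation ran 3 days.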

`Cn1cc2c3c(c[nH]c3c1=O)C(CCC(=O)NC1CCS(=O)(=O)C1)N(c1ccc(F)cc1F)c1ccc(CS(C)(=O)=O)cc1-2` (stereo not drawn) [Example 124, 3-(4-(2,4-difluorophenyl)-10-methyl-7-((methylsulfonyl)methyl)-11-oxo-3,4,10,11-tetrahydro-1H-1,4,10-triazadibenzo[cd,f]azulen-3-yl)-N-(1,1-dioxidotetrahydrothiophen-3-yl)propanamide]: the negative-log Ki (pKi) on BRD4 (BDI_K57-E168) was 8.05; on BRD4 (BDII_E352-M457) it was 8.56. In addition, in experiment [1], the pEC50 is 6.03.
For `Cn1cc2c3c(c[nH]c3c1=O)C(CCC(=O)N1CCN(C(=O)OC(C)(C)C)CC1)N(c1ccc(F)cc1F)c1ccc(CS(C)(=O)=O)cc1-2` (stereo not drawn) [Example 125, tert-butyl 4-(3-(4-(2,4-difluorophenyl)-10-methyl-7-((methylsulfonyl)methyl)-11-oxo-3,4,10,11-tetrahydro-1H-1,4,10-triazadibenzo[cd,f]azulen-3-yl)propanoyl)piperazine-1-carboxylate], the pKi is 8.03 on BRD4 (BDI_K57-E168) and 8.63 on BRD4 (BDII_E352-M457). In experiment [1], the pEC50 was 6.47.
In the case of `CCNC(=O)c1[nH]c2c(=O)n(C)cc3c2c1CN(c1ccc(Cl)cc1)c1ccccc1-3` [Example 127, 4-(4-chlorophenyl)-N-ethyl-10-methyl-11-oxo-3,4,10,11-tetrahydro-1H-1,4,10-triazadibenzo[cd,f]azulene-2-carboxamide], the pKi at BRD4 (BDI_K57-E168) was 8.57; at BRD4 (BDII_E352-M457), 8.87. In experiment [1], the pEC50 is 7.38.
Regarding `CC(=O)OCCCCCCC1c2c[nH]c3c(=O)n(C)cc(c23)-c2cc(CS(C)(=O)=O)ccc2N1c1ccc(F)cc1F` (stereo not drawn) [Example 128, 6-(4-(2,4-difluorophenyl)-10-methyl-7-((methylsulfonyl)methyl)-11-oxo-3,4,10,11-tetrahydro-1H-1,4,10-triazadibenzo[cd,f]azulen-3-yl)hexyl acetate], the results for the negative-log Ki (pKi) on BRD4 (BDI_K57-E168) and at BRD4 (BDII_E352-M457) were 7.54 and 8.70, respectively. Moreover, in experiment [1], the pEC50 was 7.14.
In the case of `Cn1cc2c3c(c[nH]c3c1=O)C(CN)N(c1ccc(F)cc1F)c1ccc(CS(C)(=O)=O)cc1-2` (stereo not drawn) [Example 129, 3-(aminomethyl)-4-(2,4-difluorophenyl)-10-methyl-7-((methylsulfonyl)methyl)-3,4-dihydro-1H-1,4,10-triazadibenzo[cd,f]azulen-11(10H)-one], the pKi was 7.79 on BRD4 (BDI_K57-E168) and 8.60 on BRD4 (BDII_E352-M457). The pEC50 in experiment [1] was 6.60.
Regarding `Cn1cc2c3c(c[nH]c3c1=O)C(CCC(=O)N1CCNCC1)N(c1ccc(F)cc1F)c1ccc(CS(C)(=O)=O)cc1-2` (stereo not drawn) [Example 131, 4-(2,4-difluorophenyl)-10-methyl-7-((methylsulfonyl)methyl)-3-(3-oxo-3-(piperazin-1-yl)propyl)-3,4-dihydro-1H-1,4,10-triazadibenzo[cd,f]azulen-11(10H)-one], the pKi was 7.97 on BRD4 (BDI_K57-E168) and 8.63 on BRD4 (BDII_E352-M457). Further, the pEC50 in experiment [1] is less than 6.00.
On to `Cn1cc2c3c(c[nH]c3c1=O)C(CCC(=O)NC1CCNCC1)N(c1ccc(F)cc1F)c1ccc(CS(C)(=O)=O)cc1-2` (stereo not drawn) [Example 132, 3-(4-(2,4-difluorophenyl)-10-methyl-7-((methylsulfonyl)methyl)-11-oxo-3,4,10,11-tetrahydro-1H-1,4,10-triazadibenzo[cd,f]azulen-3-yl)-N-(piperidin-4-yl)propanamide], for which the negative logarithm of the Ki (pKi) is 7.95 on BRD4 (BDI_K57-E168) and 8.50 on BRD4 (BDII_E352-M457). In experiment [1], the pEC50 was less than 6.00.
In the case of `CC(=O)OCC(CCC1c2c[nH]c3c(=O)n(C)cc(c23)-c2cc(CS(C)(=O)=O)ccc2N1c1ccc(F)cc1F)OC(C)=O` (stereo not drawn) [Example 133, 4-(4-(2,4-difluorophenyl)-10-methyl-7-((methylsulfonyl)methyl)-11-oxo-3,4,10,11-tetrahydro-1H-1,4,10-triazadibenzo[cd,f]azulen-3-yl)butane-1,2-diyl diacetate], the pKi at BRD4 (BDI_K57-E168) is 8.03; at BRD4 (BDII_E352-M457), 8.85. In experiment [1], the pEC50 was 6.69.
`COC(=O)CCCCC1c2c[nH]c3c(=O)n(C)cc(c23)-c2cc(CS(C)(=O)=O)ccc2N1c1ccc(F)cc1F` (stereo not drawn) [Example 134, methyl 5-(4-(2,4-difluorophenyl)-10-methyl-7-((methylsulfonyl)methyl)-11-oxo-3,4,10,11-tetrahydro-1H-1,4,10-triazadibenzo[cd,f]azulen-3-yl)pentanoate]: the negative-log Ki (pKi) is 7.84 on BRD4 (BDI_K57-E168) and 8.95 at BRD4 (BDII_E352-M457). Further, the pEC50 in experiment [1] is 6.74.
As for `Cn1cc2c3c(c[nH]c3c1=O)C(CNC(=O)CNC(=O)OC(C)(C)C)N(c1ccc(F)cc1F)c1ccc(CS(C)(=O)=O)cc1-2` (stereo not drawn) [Example 135, tert-butyl (2-(((4-(2,4-difluorophenyl)-10-methyl-7-((methylsulfonyl)methyl)-11-oxo-3,4,10,11-tetrahydro-1H-1,4,10-triazadibenzo[cd,f]azulen-3-yl)methyl)amino)-2-oxoethyl)carbamate], the values for the pKi on BRD4 (BDI_K57-E168) and at BRD4 (BDII_E352-M457) were 7.94 and 8.67, respectively. The pEC50 in experiment [1] is 6.29.
On the same counts, the results for `Cn1cc2c3c(c[nH]c3c1=O)C(CCCCCCO)N(c1ccc(F)cc1F)c1ccc(CS(C)(=O)=O)cc1-2` (stereo not drawn) [Example 136, 4-(2,4-difluorophenyl)-3-(6-hydroxyhexyl)-10-methyl-7-((methylsulfonyl)methyl)-3,4-dihydro-1H-1,4,10-triazadibenzo[cd,f]azulen-11(10H)-one] are 7.88, 8.88 and 7.31.
For `Cn1cc2c3c(c[nH]c3c1=O)C(CNC(=O)c1ccccc1)N(c1ccc(F)cc1F)c1ccc(CS(C)(=O)=O)cc1-2` (stereo not drawn) [Example 137, N-((4-(2,4-difluorophenyl)-10-methyl-7-((methylsulfonyl)methyl)-11-oxo-3,4,10,11-tetrahydro-1H-1,4,10-triazadibenzo[cd,f]azulen-3-yl)methyl)benzamide], the pKi is 7.29 at BRD4 (BDI_K57-E168) and 8.41 at BRD4 (BDII_E352-M457). Also, the pEC50 in experiment [1] was 6.62.
As for `Cn1cc2c3c(c[nH]c3c1=O)C(CNC(=O)CN)N(c1ccc(F)cc1F)c1ccc(CS(C)(=O)=O)cc1-2` (stereo not drawn) [Example 139, 2-amino-N-((4-(2,4-difluorophenyl)-10-methyl-7-((methylsulfonyl)methyl)-11-oxo-3,4,10,11-tetrahydro-1H-1,4,10-triazadibenzo[cd,f]azulen-3-yl)methyl)acetamide], the pKi was 7.76 on BRD4 (BDI_K57-E168) and 8.63 at BRD4 (BDII_E352-M457). Besides, in experiment [1], the pEC50 was 6.20.
Turning to `Cn1cc2c3c(c[nH]c3c1=O)C(CCC(O)CO)N(c1ccc(F)cc1F)c1ccc(CS(C)(=O)=O)cc1-2` (stereo not drawn) [Example 140, 4-(2,4-difluorophenyl)-3-(3,4-dihydroxybutyl)-10-methyl-7-((methylsulfonyl)methyl)-3,4-dihydro-1H-1,4,10-triazadibenzo[cd,f]azulen-11(10H)-one], the pKi is 8.00 at BRD4 (BDI_K57-E168) and 8.65 at BRD4 (BDII_E352-M457). Besides, the pEC50 in experiment [1] is 6.03.
On the same counts, the results for `Cn1cc2c3c(c[nH]c3c1=O)C(CCCO)N(c1ccc(F)cc1F)c1ccc(CS(C)(=O)=O)cc1-2` (stereo not drawn) [Example 142, 4-(2,4-difluorophenyl)-3-(3-hydroxypropyl)-10-methyl-7-((methylsulfonyl)methyl)-3,4-dihydro-1H-1,4,10-triazadibenzo[cd,f]azulen-11(10H)-one] are 8.06, 9.22 and 7.29.
With `Cn1cc2c3c(c[nH]c3c1=O)C(CCCOc1ccccc1)N(c1ccc(F)cc1F)c1ccc(CS(C)(=O)=O)cc1-2` (stereo not drawn) [Example 143, 4-(2,4-difluorophenyl)-10-methyl-7-((methylsulfonyl)methyl)-3-(3-phenoxypropyl)-3,4-dihydro-1H-1,4,10-triazadibenzo[cd,f]azulen-11(10H)-one], the pKi on BRD4 (BDI_K57-E168) was 7.26; at BRD4 (BDII_E352-M457), 8.51. Moreover, the pEC50 in experiment [1] is 6.76.
On to `Cn1cc2c3c(c[nH]c3c1=O)C(CCCOc1ccccc1)N(c1ccc(F)cc1F)c1ccc(CS(C)(=O)=O)cc1-2` [Example 145, (R)-4-(2,4-difluorophenyl)-10-methyl-7-((methylsulfonyl)methyl)-3-(3-phenoxypropyl)-3,4-dihydro-1H-1,4,10-triazadibenzo[cd,f]azulen-11(10H)-one], for which the figures for the pKi at BRD4 (BDI_K57-E168) and on BRD4 (BDII_E352-M457) were 7.26 and 8.86, respectively. In addition, the pEC50 in experiment [1] is 7.09.
Turning to `CN1CCN(Cc2[nH]c3c(=O)n(C)cc4c3c2CN(c2ccc(Cl)cc2)c2ccccc2-4)CC1` [Example 146, 4-(4-chlorophenyl)-10-methyl-2-((4-methylpiperazin-1-yl)methyl)-3,4-dihydro-1H-1,4,10-triazadibenzo[cd,f]azulen-11(10H)-one], the pKi was 8.85 on BRD4 (BDI_K57-E168) and 7.77 on BRD4 (BDII_E352-M457). Moreover, the pEC50 in experiment [1] was 6.91.
Consider `COCCCC1c2c[nH]c3c(=O)n(C)cc(c23)-c2cc(CS(C)(=O)=O)ccc2N1c1ccc(F)cc1F` (stereo not drawn) [Example 147, 4-(2,4-difluorophenyl)-3-(3-methoxypropyl)-10-methyl-7-((methylsulfonyl)methyl)-3,4-dihydro-1H-1,4,10-triazadibenzo[cd,f]azulen-11(10H)-one], for which the results for the negative logarithm of the Ki (pKi) on BRD4 (BDI_K57-E168) and at BRD4 (BDII_E352-M457) were 8.15 and 9.01, respectively. Besides, the pEC50 in experiment [1] was 7.69.
